Source: publication PMC10974290, “Biocatalytic Synthesis of Coumarin S-Glycosides: Towards Non-Cytotoxic Probes for Biomedical Imaging and Sensing” (Molecules, 2024)

Experiments:
[1] = test system: MCF-7 (breast adenocarcinoma); test: MTT cell proliferation assay, MCF-7; format: cell-based; details: Homo sapiens, MCF7, 72 h incubation, 95% confidence interval in parentheses
Description: (§1) To use these S-glycosidic compounds in cellulo, the potential impact of the glycosidic linkage nature on the anticancer activity was assessed. The S-glycoside derivatives and the 7-MC were tested against four human cancer cell lines and a healthy one, namely A549 (lung carcinoma), HS-683 (glioma cancer), MCF-7 (breast adenocarcinoma), SK-MEL-28 (melanoma skin cancer), and HaCaT (keratinocyte normal skin), using MTT (thiazolyl blue tetrazolium bromide, Sigma-Aldrich, St. Louis, MO, USA) assay, as previously described in the literature. The selected reference drugs were 5-fluorouracil (5-FU) and etoposide.
(§2) Cell proliferation of five distinct cell lines was evaluated using the colorimetric MTT (thiazolyl blue tetrazolium bromide, Sigma) assay. Human keratinocyte normal skin HaCaT was cultivated in DMEM supplemented with 4.5 g/L glucose, 2 mM L-glutamine, and 10% FBS. Cancer cell lines and their respective growth media were obtained from CLS Cell Line Service GmbH (Eppelheim, Germany). Specifically, human skin melanoma SK-MEL-28 and human brain glioma HS683 were cultivated in DMEM with identical supplements as HaCaT cells. The human lung carcinoma cell line A-549 was grown in DMEM/Ham’s F12 (1:1) medium supplemented with 2 mM L-glutamine and 5% FBS. Additionally, human breast adenoma carcinoma MCF-7 cells were sustained in EMEM supplemented with 2 mM L-glutamine, sodium pyruvate, non-essential amino acids (NEAAs), 10 µg/mL insulin human, and 10% FBS. The MTT assay relies on the reduction of the yellow product thiazolyl blue tetrazolium bromide (MTT) to formazan, a purple-blue product, by mitochondrial dehydrogenases in metabolically active cells. The number of living cells after incubation in the presence (or absence, control) of the tested molecules is directly proportional to the blue color, which was measured by spectrophotometry. To perform the assay, cells were initially seeded at a density of 2500 cells/mL in 96-well culture plates (Nunc™ Edge 2.0, Fisher) and allowed to adhere and proliferate over a 24-hour incubation period. Following this, the cells were treated with various concentrations of the tested compounds, which were previously prepared as serial dilutions and dissolved in 0.1% DMSO. These stable solutions guarantee the consistency of experimental conditions over extended periods. Each concentration of the tested compounds underwent triplicate testing (n = 3), and cells were subsequently incubated for 72 h to allow for thorough evaluation. Following this incubation period, MTT reagent (5 mg/mL solution in PBS) was introduced to each well (10% v/v), and cells were further incubated for 4 h. Then, the culture medium was carefully removed, and the resulting blue formazan crystals were dissolved in 100 µL of 100% DMSO. Absorbance readings were taken at 540 nm, referencing a wavelength of 620 nm, using a spectrophotometer. In determining the IC50, the absorbance of serial dilutions of each cell line, treated under identical conditions but without the presence of the tested compounds, was measured.

[2] = test system: A-549 (lung carcinoma); test: MTT cell proliferation assay, A-549; format: cell-based, human; details: 72 h incubation, 95% confidence interval in parentheses
Description: as §1, with “literature.” for “literature. The selected reference drugs were 5-fluorouracil (5-FU) and etoposide.”
as §2, with “These stable solutions guarantee the consistency of experimental conditions over extended periods.” left out

[3] = test system: SK-MEL-28 (melanoma skin cancer); test: MTT cell proliferation assay, SK-MEL-28; format: cell-based; details: Homo sapiens, 72 h incubation, 95% confidence interval in parentheses
Description: as §1, §2

[4] = test system: HaCaT (keratinocyte normal skin); test: MTT cell proliferation assay, HaCaT; format: cell-based; details: Homo sapiens, 72 h incubation, 95% confidence interval in parentheses
Description: as §1, §2

IC50 [1] | IC50 ([2]; Homo sapiens, A549, 72 h) | IC50 [3] | IC50 [2] | SMILES | IC50 [4]
> 1000 µM | > 1000 µM | 306 µM | – | Cc1cc(=O)oc2cc(S)ccc12 [Compound 7-MC, 7-mercapto-4-methylcoumarin, reference compound] | –
> 1000 µM | > 1000 µM | > 1000 µM | – | Cc1cc(=O)oc2cc(S[C@@H]3O[C@H](C(=O)O)[C@@H](O)[C@H](O)[C@H]3O)ccc12 [Compound S-1, 4-Methylumbellifer-7-yl 1-thio-β-D-glucopyranosiduronic acid] | > 1000 µM
128 µM | 74 µM | 228 µM | 74.8 µM | Cc1cc(=O)oc2cc(S[C@@H]3OC[C@@H](O)[C@H](O)[C@H]3O)ccc12 [Compound S-2, 4-Methylumbellifer-7-yl 1-thio-β-D-xylopyranoside] | 162 µM
> 1000 µM | > 1000 µM | > 1000 µM | – | Cc1cc(=O)oc2cc(S[C@@H]3O[C@H](CO)[C@@H](O)[C@H](O)[C@H]3O)ccc12 [Compound S-3, 4-Methylumbellifer-7-yl 1-thio-β-D-glucopyranoside] | > 1000 µM
> 1000 µM | > 1000 µM | > 1000 µM | – | Cc1cc(=O)oc2cc(S[C@@H]3O[C@H](CO)[C@H](O)[C@H](O)[C@H]3O)ccc12 [Compound S-4, 4-Methylumbellifer-7-yl 1-thio-β-D-galactopyranoside] | > 1000 µM
> 1000 µM | > 1000 µM | > 1000 µM | – | Cc1cc(=O)oc2cc(S[C@@H]3O[C@H](C)[C@H](O)[C@H](O)[C@H]3O)ccc12 [Compound S-5, 4-Methylumbellifer-7-yl 1-thio-β-D-fucopyranoside] | > 1000 µM
> 1000 µM | > 1000 µM | > 1000 µM | – | Cc1cc(=O)oc2cc(S[C@H]3O[C@H](CO)[C@H](O)[C@H](O)[C@H]3O)ccc12 [Compound S-6, 4-Methylumbellifer-7-yl 1-thio-α-D-galactopyranoside] | > 1000 µM
